What was measured:
COX-2 = target: T1, COX-2 (Homo sapiens, UniProt P35354); test: Cyclooxygenase COX-2 inhibition assay; format: biochemical; conditions: for inhibition at 62.5 µg/mL: 62.50 μg/mL; for inhibition at 1000 µg/mL: 1,000 µg/mL
T1 construct: purchased Sigma-Aldrich (local distributor) C0858
T1 sequence (P35354 18-604): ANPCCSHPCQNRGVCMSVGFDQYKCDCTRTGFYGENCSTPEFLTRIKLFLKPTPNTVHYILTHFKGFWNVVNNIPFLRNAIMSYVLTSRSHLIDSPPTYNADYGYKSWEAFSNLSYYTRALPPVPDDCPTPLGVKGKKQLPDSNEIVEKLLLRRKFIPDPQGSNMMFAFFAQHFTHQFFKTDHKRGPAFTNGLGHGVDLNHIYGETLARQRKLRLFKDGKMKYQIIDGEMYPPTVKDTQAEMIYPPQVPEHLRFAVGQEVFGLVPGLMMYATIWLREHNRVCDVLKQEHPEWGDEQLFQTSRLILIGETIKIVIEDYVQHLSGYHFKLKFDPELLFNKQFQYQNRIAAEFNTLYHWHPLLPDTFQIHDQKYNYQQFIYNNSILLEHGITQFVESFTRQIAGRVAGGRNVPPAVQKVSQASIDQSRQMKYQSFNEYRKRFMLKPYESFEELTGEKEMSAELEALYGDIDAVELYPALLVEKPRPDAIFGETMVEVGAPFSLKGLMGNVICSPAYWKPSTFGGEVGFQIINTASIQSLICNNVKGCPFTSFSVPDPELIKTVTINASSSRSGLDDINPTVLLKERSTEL
Method: The COX-2 enzyme solution with 300 U/mL concentrations was formed. The enzyme solution (10 µL) was maintained on ice up to 10 min for activation. Moreover, this solution was added to a 50 µL co-factor solution containing 1 mM hematin, 0.9 mM glutathione, and 0.24 mM N,N,N,N-tetramethyl-p-phenylenediamine dihydrochloride (TMPD) in 0.1 M Tris HCl buffer at pH 8.0. […] Likewise, 30 mM of arachidonic acid (20 µL) was mixed for initiating the reaction and incubated for 4–5 min. Following incubation, absorbance of the samples was determined using a UV-visible spectrophotometer at 570 nm. The percentage inhibition of the COX-2 enzyme was determined through the absorbance value per unit time. Enzyme inhibition against various concentrations of investigated samples was used to calculate the IC50 values.

[1] = H2O2 free radical scavenging activity
Method: The antioxidant potential of isolated compounds was determined using this approach. In a phosphate buffer solution (50 mM, pH 7.40), a solution of H2O2 (2 mM) was produced. The crude extract (0.10 mL) was measured in a test tube and diluted to 0.40 mL using phosphate buffer. Thereafter, H2O2 (0.60 mL) was added and thoroughly mixed. […] 230 nm was used to measure the absorbance of the sample and the standard ([Sadiq et al., 2018]). For all the crude samples, the exact process was followed. According to the procedure, the inhibition percentage and IC50 values were computed.

5-LOX = target: T2, 5-LOX (Homo sapiens, UniProt P09917); test: 5-Lipoxygenase (5-LOX) inhibition assay; format: biochemical; conditions: for inhibition at 62.5 µg/mL: 62.50 μg/mL; for inhibition at 62.5 µg/mL / inhibition at 125 µg/mL / inhibition at 250 µg/mL / inhibition at 500 µg/mL / inhibition at 1000 µg/mL: read-out: % 5-LOX inhibitions; for inhibition at 1000 µg/mL: 1,000 µg/mL; for % 5-LOX inhibitions: 1,000 μg/mL
T2 construct: purchased Sigma-Aldrich (local distributor) 437996
T2 sequence (P09917 1-674): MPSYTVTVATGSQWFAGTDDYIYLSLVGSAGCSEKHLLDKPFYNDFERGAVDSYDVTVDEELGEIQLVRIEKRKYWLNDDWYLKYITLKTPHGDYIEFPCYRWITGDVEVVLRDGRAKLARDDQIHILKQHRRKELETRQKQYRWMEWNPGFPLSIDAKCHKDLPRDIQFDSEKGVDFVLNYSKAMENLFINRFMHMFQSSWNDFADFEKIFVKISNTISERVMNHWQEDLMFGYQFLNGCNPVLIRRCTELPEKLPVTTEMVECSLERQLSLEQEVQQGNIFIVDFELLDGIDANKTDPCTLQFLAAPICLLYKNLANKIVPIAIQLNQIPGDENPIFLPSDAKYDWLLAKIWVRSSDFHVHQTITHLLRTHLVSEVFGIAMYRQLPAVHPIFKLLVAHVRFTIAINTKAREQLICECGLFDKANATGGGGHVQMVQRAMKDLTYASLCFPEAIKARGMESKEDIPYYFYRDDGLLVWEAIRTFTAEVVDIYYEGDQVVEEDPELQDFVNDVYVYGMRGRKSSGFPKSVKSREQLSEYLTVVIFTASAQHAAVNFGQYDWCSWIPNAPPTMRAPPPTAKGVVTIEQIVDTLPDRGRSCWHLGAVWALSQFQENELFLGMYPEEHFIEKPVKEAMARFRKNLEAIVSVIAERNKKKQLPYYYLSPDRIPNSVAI
Method: The 5-LOX inhibitory experiments on H. digitata samples were carried out as per published protocol ([Pervaiz et al., 2022]). Several concentrations of plant samples were made, with concentrations ranging from 31.25 to 1,000 μg/mL. Thereafter, 5-LOX was primed with 10,000 U/mL solutions. Linoleic acid (80 mM) was used as the substrate. Likewise, 50 mM phosphate buffer with a pH of 6.3 was primed. Plant samples of varied quantities were dissolved in 250 µL of phosphate buffer, and then, 250 µL of the lipoxygenase enzyme solution was added and incubated for 5 min at room temperature. A volume of 1,000 µL of the substrate solution with a concentration of 0.6 mM was added to the enzyme solution and shaken. The absorbance at 234 nm was observed. All of the tests were conducted three times. In this test, zileuton served as a positive control. The percentage inhibition was determined using the following equation: Percentage Inhibition=Control Abs. −Sample Abs. /Control Abs. ×100.
The IC50 values were derived by plotting the inhibitions against the concentrations of the tested sample solution.

Row | Structure (SMILES) | IC50 (COX-2) | inhibition at 62.5 µg/mL (COX-2) | inhibition at 125 µg/mL (COX-2) | inhibition at 250 µg/mL (COX-2) | inhibition at 500 µg/mL (COX-2) | H2O2 IC50 [1] | IC50 (5-LOX) | inhibition at 62.5 µg/mL (5-LOX) | inhibition at 125 µg/mL (5-LOX) | inhibition at 250 µg/mL (5-LOX) | inhibition at 500 µg/mL (5-LOX) | inhibition at 1000 µg/mL (5-LOX) | % 5-LOX inhibitions (5-LOX; listed as Comp 4) | % 5-LOX inhibitions (5-LOX; listed as Comp 5) | inhibition at 1000 µg/mL (COX-2) | H2O2 % inhibition ([1]; 62.5 µg/mL) | H2O2 % inhibition ([1]; 125 µg/mL) | H2O2 % inhibition ([1]; 250 µg/mL) | H2O2 % inhibition ([1]; 500 µg/mL) | H2O2 % inhibition ([1]; 1,000 µg/mL)
1 | CC1=C(O)C(=O)C(O)CO1 (stereo not shown) [Compound 2, 3,5-dihydroxy-6-methyl-2,3-dihydro-4H-pyran-4-one] | 101 µM | 58.12 ± 0.34% | 63.47 ± 0.49% | 68.75 ± 0.14% | 75.59 ± 0.3% | 06 µg/mL | 73.9 µM | 61.35 ± 0.18% | 66.2 ± 0.15% | 73.42 ± 0.11% | 78.62 ± 0.17% | 83.53 ± 0.2% | – | – | 80.85 ± 0.18% | 67.90 ± 1.16 ^ns % | 71.34 ± 0.55 ^ns % | 75.36 ± 0.49 ^ns % | 80.39 ± 0.49 ^ns % | 86.39 ± 0.60 ^ns %
2 | Cc1cnc(O)nc1O [Compound 1, 5-methylpyrimidine-24,4-diol] | 84.8 µM | 61.1 ± 0.7% | 66.4 ± 0.7% | 72.7 ± 0.51% | 78.83 ± 0.73% | 05 µg/mL | 58.7 µM | 65.68 ± 0.64% | 71.42 ± 0.46% | 76.53 ± 0.41% | 82.45 ± 0.55% | 87.63 ± 0.64% | – | – | 83.13 ± 0.8% | 69.91 ± 1.30 ^ns % | 71.76 ± 0.61 ^ns % | 76.87 ± 1.27 ^ns % | 81.13 ± 0.20^ns % | 85.20 ± 0.23^ns %
3 | Cc1ccc(C(C)C)c(O)c1 [Compound 3, 2-isopropyl-5-methylphenol] | 145 µM | 53 ± 0.57% | 62.5 ± 0.44% | 66.33 ± 0.33% | 74.7 ± 1.2% | 33 µg/mL | 174 µM | 51.9 ± 1.16% | 57.34 ± 0.55% | 61.36 ± 0.49% | 67.39 ± 0.49% | 73.39 ± 0.6% | – | – | 79 ± 0.16% | 58.74 ± 0.68 % | 62.70 ± 1.25 % | 67.05 ± 0.75 % | 72.32 ± 1.06 % | 77.34 ± 0.98 %

Now from value to compound, other results behind:

Row | IC50 (COX-2) | inhibition at 62.5 µg/mL (COX-2) | inhibition at 125 µg/mL (COX-2) | inhibition at 250 µg/mL (COX-2) | inhibition at 500 µg/mL (COX-2) | H2O2 IC50 [1] | IC50 (5-LOX) | inhibition at 62.5 µg/mL (5-LOX) | inhibition at 125 µg/mL (5-LOX) | inhibition at 250 µg/mL (5-LOX) | inhibition at 500 µg/mL (5-LOX) | inhibition at 1000 µg/mL (5-LOX) | % 5-LOX inhibitions (5-LOX; listed as Comp 4) | % 5-LOX inhibitions (5-LOX; listed as Comp 5) | Structure (SMILES) | inhibition at 1000 µg/mL (COX-2) | H2O2 % inhibition ([1]; 62.5 µg/mL) | H2O2 % inhibition ([1]; 125 µg/mL) | H2O2 % inhibition ([1]; 250 µg/mL) | H2O2 % inhibition ([1]; 500 µg/mL) | H2O2 % inhibition ([1]; 1,000 µg/mL)
4 | 135 µM | 55.56 ± 0.52% | 64.78 ± 0.6% | 71.46 ± 0.53% | 77.68 ± 0.63% | 65 µg/mL | 182 µM | 59.8 ± 0.65% | 66.7 ± 0.78% | 75.7 ± 0.62% | 80.76 ± 0.63% | 76.7 ± 0.66% | 84.83 ± 0.62 % | – | C=Cc1ccc(O)cc1OC [Compound 4, 3-methoxy-4-vinylphenol] | 85.72 ± 0.79% | 53.90 ± 0.48 % | 57.03 ± 0.48 % | 62.90 ± 0.96 % | 65.65 ± 1.34 % | 69.58 ± 1.12 %
5 | 217 µM | 46.9 ± 0.42% | 56.4 ± 0.63% | 61 ± 0.33% | 66.2 ± 0.73% | 35 µg/mL | 171 µM | 49.9 ± 0.65% | 57.2 ± 0.57% | 65.5 ± 1.04% | 71.3 ± 1.11% | 84.83 ± 0.62% | – | 76.7 ± 0.66 % | C=Cc1cc(OC)c(O)c(OC)c1 [Compound 5, 2,6-dimethoxy-4-vinylphenol] | – | 57.51 ± 0.62 % | 62.46 ± 0.47 % | 66.68 ± 0.64 % | 70.53 ± 0.41 % | 76.42 ± 0.46 %

From PMC10937556, “Phenolic phytochemistry, in vitro, in silico, in vivo, and mechanistic anti-inflammatory and antioxidant evaluations of Habenaria digitata” (Frontiers in Pharmacology, 2024)
